From patent publication US10357487B2, “Combinations of acetylcholinesterase inhibitors and muscarinic agonists and methods of use thereof” (priority 2015, dated 2019)

Key:
[1] = test system: patients with history of PVR; test: Side effects observed in the patients
[2] = test system: patients with history of PVR; test: Post void residual (PVR) before and after combination regimen in patients with urinary retention; assay type: in vivo, human; settings: donepezil 5 or 10 added to respective regimens (alpha blocker, bethanechol); all patients
Protocol: (§1) The patients opted for immediate TURP and pharmacological therapy with alpha blocker, bethanechol, and donepezil if needed.
(§2) Bethanechol was then added to maximal recommended doses, according to package insert or Physician Desk Reference (PDR), which was 200 mg per day in divided doses. […] Bethanocol was either added at 75 mg five times per day to their existing regimen or patients were switched to betahnocol alone at 75 mg five time per day.
(§3) Subsequently donepezil was added in amounts ranging from 5 or 10 to their respective regimens.

[3] = test system: patients with history of PVR; test: Voiding trial / ability to void under stepwise drug regimens; assay type: in vivo, human
Protocol: In an exemplary embodiment, patients with history of PVR of 100 ml to 2500 ml failed bother standard drug treatment and the Trans Urethral Resection of the Prostate (TURP) procedure or combinations of both treatment options.
as §1, §2, §3
While all patients in this series were males, females can also benefit from the present combination, particularly if no obstruction exists in their urinary tract.

[4] = silodosin 8 mg added to tamsulosin

In the case of `CC(C[N+](C)(C)C)OC(N)=O` (centres unmarked) [bethanechol, carbamyl-methylcholine chloride], the side effects ([1]; bethanechol at 200 mg per day or 375 mg per day, eight patients) is reported as “no side effects”.

With `COc1cc2c(cc1OC)C(=O)C(CC1CCN(Cc3ccccc3)CC1)C2` (centres unmarked) [donepezil] the “reduction in PVR upon completion of the trial” value [2] was “more than 75%”, the ability to void ([3]; donepezil 5 or 10 added to respective regimens, each patient) was “able to void” and the bladder emptying ([3]; eight sequentially seen patients, donepezil with bethanechol) was “potentiated bethanechol to facilitate bladder emptying”. For the same compound, the frequency of voiding ([3]; upon continuation of the regimen with donepezil, all patients) was “increasing frequency of voiding”.

`C[C@H](Cc1cc2c(c(C(N)=O)c1)N(CCCO)CC2)NCCOc1ccccc1OCC(F)(F)F` [silodosin] was tested, and the voiding trial [3, 4] was “failed to the voiding trial” and the side effects [1, 4] was “no extra side effects”.

With `CCOc1ccccc1OCCN[C@H](C)Cc1ccc(OC)c(S(N)(=O)=O)c1` [tamsulosin] the voiding trial ([3]; tamsulosin 0.4 mg or 0.8 mg per day) was “failed a voiding trial”.
